Test results from patent US8722642B2, “Multiantivirus compound, composition and method for treatment of virus diseases” (Biocell Laboratories, priority 2011, dated 2014).

Assays:
[1] = system: hemagglutinin of influenza virus AFM 1/47 (H1N1); test: Hemagglutination reaction: influence on hemagglutinin activity of influenza virus; assay type: biochemical
[2] = system: influenza virus A/FM/1/47(H1N1), adapted for lungs of white mice; test: Model of influenza pneumonia in mice; assay type: in vivo; conditions: Tamiflu, dose not given, intra-abdominal

Compound: OC[C@@H](O)[C@@H](O)[C@H](O)[C@H](O)CO [Mannitol]
- Difference in the virus titers ([1]; 0.5 mg/ml, temperature of reaction 30 ° C.): 0 log2x
- Virus titer in the experiment ([1]; 0.5 mg/ml, temperature of reaction 30 ° C., control virus 8): 8 log2x

Compound: CCOC(=O)C1=C[C@@H](OC(CC)CC)[C@H](NC(C)=O)[C@@H](N)C1 [Tamiflu, Oseltamivir]
- % died ([2]; preventive regimen): 30 ± 1.0%
- CP (Coefficient of protection) ([2]; preventive regimen): 5.0
- IE (Index of effectiveness) ([2]; preventive regimen): 70.0
- % died ([2]; treatment regimen): 20.0 ± 0.5%
- CP (Coefficient of protection) ([2]; treatment regimen): 10.0
- IE (Index of effectiveness) ([2]; treatment regimen): 80.0

Compound: Poliguanylic acid [Poly G]
- Difference in virus titers ([1]; concentration 10 mg/ml): 0 lg2^X
- Virus titer in the experiment ([1]; concentration 10 mg/ml, […]): 9 lg2^X

Compound: Polyadenylic acid [Poly A]
- Difference in virus titers ([1]; concentration 10 mg/ml): 2 lg2^X
- Virus titer in the experiment ([1]; concentration 10 mg/ml, […]): 7 lg2^X

Compound: Polycytydilic acid [Poly C]
- Difference in virus titers ([1]; concentration 10 mg/ml): 2 lg2^X
- Virus titer in the experiment ([1]; concentration 10 mg/ml, […]): 7 lg2^X

Compound: Polyinosinic:polycytidylic acid [PolyIC]
- Difference in virus titers ([1]; concentration 10 mg/ml): 3 lg2^X
- Virus titer in the experiment ([1]; concentration 10 mg/ml, […]): 9 lg2^X

Compound: Polyinosylic acid [Poly I]
- Difference in virus titers ([1]; concentration 10 mg/ml): 3 lg2^X
- Virus titer in the experiment ([1]; concentration 10 mg/ml, […]): 6 lg2^X

Compound: Polyurydylic acid [Poly U]
- Difference in virus titers ([1]; concentration 10 mg/ml): 2 lg2^X
- Virus titer in the experiment ([1]; concentration 10 mg/ml, […]): 9 lg2^X
